Measured values from paper PMC10265664, “Peptide Antibiotic–Polyphosphate Nanoparticles: A Promising Strategy to Overcome the Enzymatic and Mucus Barrier of the Intestine” (Biomacromolecules, 2023).
Where two headings read alike, the source gives them in different places.

How the values were obtained:
[1] = tested on: lipase from porcine pancreas; assay: Degradation study with lipase; format: in vitro ADME; details: porcine pancreatic lipase, 37 °C, sampling 0-24 h, absorbance 210 nm, mean n = 3
Description: Enzymatic degradation of free PMB and PMB being incorporated into NPs was evaluated with lipase. Lipase solution was prepared by dissolving 0.5 g of the enzyme in 10 mL of digestion medium (2 mM Tris buffer with 5 mM CaCl2 and 150 mM NaCl). After homogenization for 10 min, the enzyme mixture was centrifuged at 12,000 rpm (Sigma 3-18KS, Austria) for 15 min at 4 °C.[17] Thereafter, 2 mL of the supernatant liquid was added to 4 mL of 0.01% (m/v) PMB–PP NPs suspension and incubated at 37 °C under constant shaking using a ThermoMixer (Eppendorf, Hamburg, Germany). Aliquots of 100 μL were withdrawn at predetermined time points (0, 1, 2, 4, 6, 12, and 24 h) and transferred to a 96-well microplate (μClear 96-well plates, Greiner bio-one, Austria). PMB–PP NPs and PMB suspension without lipase served as negative control and were incubated under the same conditions. […] The same settings were applied for PMB. The PMB concentration was determined using a calibration curve with increasing concentrations of PMB ranging from 0.78 to 50 μM.
Degradation was evaluated by quantifying the % remaining amount of PMB by the following equation: [drawing 3]

[2] = cited from earlier work
Description: The ionic strength of the polycation plays also an important role in the formation of such particles. […] PMB–PP NPs could therefore be formed.

[3] = tested on: 50 multidrug-resistant Gram-negative bacterial strains; parameters: method as in PMID 33045992; details: cited from earlier work

Polymyxin B sulfate [PMB]
PMB degraded after lipase exposure [1]: 39.32% | isoelectric point [2]: 10.74 | MICs (minimum inhibitory concentrations) ([3]; 44 of 50 multidrug-resistant Gram-negative bacterial strains): ≥ 4 µg/mL | MICs (minimum inhibitory concentrations) ([3]; the other 6 of 50 multidrug-resistant Gram-negative bacterial strains): 2 µg/mL
